Reference: PubChem BioAssay AID2128 (The Scripps Research Institute Molecular Screening Center, 2009)

Molecular target: Beta-lactamase (Pseudomonas aeruginosa) (UniProt Q932Y6)
Assay: Ki and modality of VIM-2 inhibitors – biochemical, probe results, mechanism study, late-stage follow-up (AID 2128)
Settings: purified enzyme, nitrocefin hydrolysis absorbance/fluorescence, enzyme assay, VIM-2 inhibition constant, kinetics

Question: For O=c1[nH]c2c(s1)C(c1cccnc1)C1C3CCC(C3)C1S2 (stereo unspecified), which Ki is on record?
Answer: Its Ki is 148 nM.
